The values below come from publication PMC10566733 (PLOS ONE, 2023).

For series [1], the system named is bEnd.3 mouse brain endothelial cells. As for the experimental part:
The bEnd.3 (mouse brain endothelial cell) cell line, purchased from Bioresource Collection and Research Center (BCRC, Taiwan), was used in this study. Prior to experiments, the cells were cultured in Dulbecco’s modified Eagle’s medium (DMEM; HyClone, cat. #SH30003.02) with 10% fetal bovine serum (Gibco, cat. #10437028) and 1% penicillin-streptomycin (Gibco, cat. #15140112), and were passaged every 2–3 days with 0.25% trypsin-EDTA (Gibco, cat. #25200056).
Cellular metabolic activity was measured by MTT (thiazolyl blue tetrazolium bromide) assay 24 h after treatment by normothermia (37°C), hypothermia (4°C), sodium azide (NaN3)/2-deoxy-D-glucose (2-DG), cytochalasin D, 5-(N-ethyl-N-isopropyl)-amiloride (EIPA), or methyl-beta-cyclodextrin (MβCD). In brief, MTT assay was performed with 2000 cells in culture by first replacing the cell culture medium with medium containing 0.5 mg/ml MTT (Alfa Aesar, cat. #L11939). After a 4-h incubation period to allow for MTT metabolism, the MTT-containing medium was replaced with 100 μl of dimethyl sulfoxide (DMSO; JT Baker), and the culture plate was placed on a shaker for 10 min to allow for dissolution of the violet crystal metabolites. Thereafter, the optical density of the metabolite was measured at 570 nm by an ELISA reader. The optical density of the metabolite in the hypothermia and drug treatment groups was expressed as percentage relative to the optical density of the metabolite in the normothermia and control groups, respectively.

Series [2] concerns monolayer of bEnd.3 mouse brain endothelial cells. The series is described as follows: Permeability across a monolayer of brain endothelial cells (in vitro BBB model). The class given is in vitro ADME. The settings on record: for Rate of diffusion across the monolayer compared with FITC-TAT: bEnd.3 monolayer; for Diffusion of FITC-linked peptide across bEnd.3 monolayer: fluorescence spectrophotometry. Further details: Diffusion of FITC-TAT across bEnd.3 monolayer / Diffusion of FITC-linked peptide across bEnd.3 monolayer / Diffusion of FITC-TAT across bEnd.3 monolayer, FITC-TAT + TAT / Diffusion of FITC-TAT across bEnd.3 monolayer, FITC-TAT + TATK/R>A: unit not given here.

Setting [3] is: peptide 1 μM (Fig 3A), diffusion time 0.1 h, individual cultures n = 4.
[4] abbreviates: peptide 1 μM (Fig 3A), diffusion time 4 h, individual cultures n = 4.
Where [5] appears, read: peptide 1 μM (Fig 3A), diffusion time 12 h, individual cultures n = 4.
[6] abbreviates: peptide 1 μM (Fig 3A), diffusion time 24 h, individual cultures n = 4.
Setting [7] is: peptide 3 μM (Fig 3B), diffusion time 0.1 h, individual cultures n = 4.
[8] abbreviates: peptide 3 μM (Fig 3B), diffusion time 4 h, individual cultures n = 4.
[9] abbreviates: peptide 3 μM (Fig 3B), diffusion time 12 h, individual cultures n = 4.
Where [10] appears, read: peptide 3 μM (Fig 3B), diffusion time 24 h, individual cultures n = 4.
Where [11] appears, read: peptide 10 μM (Fig 3C), diffusion time 0.1 h, individual cultures n = 4.
Setting [12] is: peptide 10 μM (Fig 3C), diffusion time 4 h, individual cultures n = 4.
[13] abbreviates: peptide 10 μM (Fig 3C), diffusion time 12 h, individual cultures n = 4.
Where [14] appears, read: peptide 10 μM (Fig 3C), diffusion time 24 h, individual cultures n = 4.

Values joined by “and” are separate entries in the source; they are usually repeats but may differ in a detail not shown here. Equal values may be shown once. Read-outs that look alike come from different tables or passages of the source. Residues, ends and D or L forms follow the SMILES beside them. *: point of attachment. FITC = O=C1OC2(c3ccc(O)cc3Oc3cc(O)ccc32)c2ccc(NC(=S)*)cc21

As to `CCN(c1nc(N)c(C(=O)N=C(N)N)nc1Cl)C(C)C` [EIPA, 5-(N-ethyl-N-isopropyl)-amiloride], the “Effect on cellular metabolic activity, MTT” value (from here on “Effect”) in series [1] is “markedly decreased cellular metabolic activity”.
With `C[C@H](NC(=O)[C@H](C)NC(=O)[C@H](C)NC(=O)[C@H](CCC(N)=O)NC(=O)[C@H](C)NC(=O)[C@H](C)NC(=O)[C@H](C)NC(=O)[C@H](C)NC(=O)[C@H](C)NC(=O)CNC(=O)[C@H](Cc1ccc(O)cc1)NC(=S)Nc1ccc2c(c1)C(=O)OC21c2ccc(O)cc2Oc2cc(O)ccc21)C(=O)O` [FITC-TATK/R>A] ({FITC}-YGAAAAAQAAA-OH), the “Rate of diffusion across the monolayer compared with FITC-TAT” value is on record as “much lower rate than FITC-TAT” in series [2] (1 μM concentration, Fig 3A); “much lower rate than FITC-TAT” in series [2] (3 μM concentration, Fig 3B); “much lower rate than FITC-TAT” in series [2] (10 μM concentration, Fig 3C). Besides, the “Diffusion of FITC-linked peptide across bEnd.3 monolayer” value was 16.9505 and 16.508 and 16.5507 and 15.9581 in series [2] (setting [3]); 28.9506 and 32.0869 and 31.9736 and 31.2514 in series [2] (setting [4]); 42.2787 and 47.1236 and 45.2026 and 46.9823 in series [2] (setting [5]); 65.8175 and 68.5893 and 66.6226 and 69.1937 in series [2] (setting [6]); 6.156 and 4.865 and 2.668 and 3.238 in series [2] (setting [7]); 19.8822 and 11.958 and 7.983 and 9.049 in series [2] (setting [8]). The “Diffusion of FITC-linked peptide across bEnd.3 monolayer” value in series [2] (setting [9]) was 39.1651 and 26.1724 and 19.7108 and 16.4957; in series [2] (setting [10]), 49.6596 and 34.462 and 23.6779 and 22.9503; in series [2] (setting [11]) it was 1.811 and 1.623 and 2.572 and 1.851; in series [2] (setting [12]) it was 18.7947 and 19.4252 and 20.5729 and 16.0903; in series [2] (setting [13]), 38.7338 and 38.9661 and 39.2385 and 32.797; in series [2] (setting [14]), 65.0223 and 61.702 and 66.1075 and 57.2466. Moreover, the “Diffusion of FITC-linked peptide across bEnd.3 monolayer” value is 2.221 and 2.035 and 1.973 in series [2] (peptide 10 μM alone (Fig 3D), diffusion time 0.1 h, individual cultures n = 3); 29.1435 and 26.4948 and 29.3071 in series [2] (peptide 10 μM alone (Fig 3D), diffusion time 12 h, individual cultures n = 3); 54.4105 and 51.9054 and 56.2316 in series [2] (peptide 10 μM alone (Fig 3D), diffusion time 24 h, individual cultures n = 3).
As for `N=C(N)NCCC[C@H](NC(=O)[C@H](CCCNC(=N)N)NC(=O)[C@H](CCCCN)NC(=O)[C@H](Cc1ccc(O)cc1)NC(=O)[C@H](CCCNC(=N)N)NC(=O)[C@H](CCCNC(=N)N)NC(=O)[C@H](CCCNC(=N)N)NC(=O)[C@H](CCCNC(=N)N)NC(=O)[C@H](CCCCN)NC(=S)Nc1ccc2c(c1)C(=O)OC21c2ccc(O)cc2Oc2cc(O)ccc21)C(=O)N[C@@H](CCC(N)=O)C(=O)NCC(=O)O` [FITC-TATscrambled] ({FITC}-KRRRRYKRRQG-OH), the “Rate of diffusion across the monolayer compared with FITC-TAT” value in series [2] (1 μM concentration, Fig 3A) is “marginally higher rate than FITC-TAT”; in series [2] (3 μM concentration, Fig 3B) it was “rate equal to that of FITC-TAT”; in series [2] (10 μM concentration, Fig 3C), “marginally lower than FITC-TAT”. In addition, the “Diffusion of FITC-linked peptide across bEnd.3 monolayer” value in series [2] (setting [3]) is 16.6121 and 16.5353 and 16.6054 and 15.9771; in series [2] (setting [4]), 37.5047 and 37.4667 and 38.2192 and 36.5367; in series [2] (setting [5]) it was 71.5027 and 70.7894 and 73.1753 and 67.019; in series [2] (setting [6]) it was 112.675 and 114.406 and 111.607 and 110.916; in series [2] (setting [7]), 5.913 and 5.203; in series [2] (setting [8]), 27.0594 (2×) and 32.066 and 20.6139. Moreover, the “Diffusion of FITC-linked peptide across bEnd.3 monolayer” value was 76.2224 (2×) and 56.9939 and 73.6994 in series [2] (setting [9]); 111.452 (2×) and 91.4132 and 89.6289 in series [2] (setting [10]); 1.995 and 1.727 and 1.576 and 1.501 in series [2] (setting [11]); 22.9531 and 16.5248 and 15.9626 and 15.9604 in series [2] (setting [12]); 52.8508 and 41.023 and 42.3549 and 44.9043 in series [2] (setting [13]); 105.008 and 91.7182 and 94.732 and 94.0226 in series [2] (setting [14]).
`C=C1[C@@H](C)[C@H]2[C@H](Cc3ccccc3)NC(=O)[C@]23[C@H](OC(C)=O)/C=C/[C@@](C)(O)C(=O)[C@@H](C)C/C=C/[C@H]3[C@@H]1O` [cytochalasin D]: the “Effect” value is reported as “had no effect on cellular metabolic activity” in series [1] (bEnd.3, pre-treatment for 30 min followed by washout, Fig 4A) and “increased cellular metabolic activity in a concentration-dependent manner” in series [1] (bEnd.3, sustained treatment for 24 h, Fig 4A).
Turning to methyl-beta-cyclodextrin [MβCD], the “Effect” value in series [1] is listed as “markedly decreased cellular metabolic activity”.
